# Target: P. falciparum apicoplast DNA polymerase (Pf-apPOL) (Plasmodium falciparum, UniProt Q8ILY1)
# Test: Fluorescence-based high-throughput DNA polymerase assay (molecular beacon), primary screen and dose-response
# Format: biochemical
# Conditions: for IC50: supplemental file 2, sheet IC50 nontoxic compounds, Pf-apPOL; for DNA Pol: 90 min, 10 µM; for % inhibition ApPOL 90': DRC-2, 90'
# How it was run: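 Single-point screening used 10 µM compound with 20 nM polymerase, 20 nM hairpin substrate and 6 µM dNTPs for 90 min at 25 °C. Confirmatory titrations (2.5–80 µM) followed fluorescence at three times, and IC50 was derived from a fit including a cooperativity term n.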
# Chain of P. falciparum apicoplast DNA polymerase (Pf-apPOL) (Q8ILY1 entry or part of it): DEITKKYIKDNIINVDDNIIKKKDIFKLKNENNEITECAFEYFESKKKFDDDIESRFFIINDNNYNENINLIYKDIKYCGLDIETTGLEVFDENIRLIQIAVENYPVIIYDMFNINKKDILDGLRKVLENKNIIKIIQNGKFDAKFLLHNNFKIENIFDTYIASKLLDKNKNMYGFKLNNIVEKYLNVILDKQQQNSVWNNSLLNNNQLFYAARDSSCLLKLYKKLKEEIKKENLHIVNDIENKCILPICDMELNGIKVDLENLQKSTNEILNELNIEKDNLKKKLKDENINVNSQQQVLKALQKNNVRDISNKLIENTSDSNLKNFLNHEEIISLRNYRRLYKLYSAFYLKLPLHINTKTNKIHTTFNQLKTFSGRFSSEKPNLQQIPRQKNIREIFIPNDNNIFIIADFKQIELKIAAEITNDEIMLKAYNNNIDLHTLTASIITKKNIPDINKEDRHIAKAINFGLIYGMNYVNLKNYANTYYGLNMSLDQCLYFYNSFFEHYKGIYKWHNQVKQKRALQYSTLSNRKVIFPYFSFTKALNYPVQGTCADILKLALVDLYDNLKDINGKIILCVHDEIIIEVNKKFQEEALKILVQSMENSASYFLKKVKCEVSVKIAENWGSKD
compound,measurement,setting,value
CSC1=C(C#N)C(=C(C#N)C#N)NC(c2ccccc2)=N1 [Molecule 2],IC50,,5.66 µM
CCCCCc1c2c(cc(O)c1C(=O)O)OC(=O)c1c(cc(OC)cc1C(=O)CCCC)O2 [Molecule 24],IC50,,9.31 µM
"CSC(C)C(=O)C=CN(C)C (stereo not shown) [Molecule 71, CSC(C(=O)C=CN(C)C)C]",DNA Pol,"'DNA Pol', screening value, unit not given",74
same,% inhibition Apo pol 10',"DRC-1, concentration 2.5",3.1346%
same,% inhibition Apo pol 10',"DRC-1, concentration 5",9.272%
same,% inhibition Apo pol 10',"DRC-1, concentration 10",23.0547%
same,% inhibition Apo pol 10',"DRC-1, concentration 20",40.6618%
same,% inhibition Apo pol 10',"DRC-1, concentration 40",61.0031%
same,% inhibition Apo pol 10',"DRC-1, concentration 80",73.8561%
same,% inhibition Apol 90',"DRC-1, concentration 2.5",-5.565%
same,% inhibition Apol 90',"DRC-1, concentration 5",-2.761%
same,% inhibition Apol 90',"DRC-1, concentration 10",6.496%
same,% inhibition Apol 90',"DRC-1, concentration 20",18.7859%
same,% inhibition Apol 90',"DRC-1, concentration 40",40.8686%
same,% inhibition Apol 90',"DRC-1, concentration 80",61.3008%
same,% inhibition apPOL 180',"DRC-1, 180', concentration 2.5",-9.552%
same,% inhibition apPOL 180',"DRC-1, 180', concentration 5",-9.951%
same,% inhibition apPOL 180',"DRC-1, 180', concentration 10",-3.723%
same,% inhibition apPOL 180',"DRC-1, 180', concentration 20",5.025%
same,% inhibition apPOL 180',"DRC-1, 180', concentration 40",23.5627%
same,% inhibition apPOL 180',"DRC-1, 180', concentration 80",48.8803%
same,% inhibition Apo pol 5',"DRC-2, 5', concentration 2.5",11%
same,% inhibition Apo pol 5',"DRC-2, 5', concentration 5",14%
same,% inhibition Apo pol 5',"DRC-2, 5', concentration 10",26%
same,% inhibition Apo pol 5',"DRC-2, 5', concentration 20",41%
same,% inhibition Apo pol 5',"DRC-2, 5', concentration 40",46%
same,% inhibition Apo pol 5',"DRC-2, 5', concentration 80",48%
same,% inhibition Apol 40',"DRC-2, 40', concentration 2.5",11%
same,% inhibition Apol 40',"DRC-2, 40', concentration 5",11%
same,% inhibition Apol 40',"DRC-2, 40', concentration 10",21%
same,% inhibition Apol 40',"DRC-2, 40', concentration 20",42%
same,% inhibition Apol 40',"DRC-2, 40', concentration 40",50%
same,% inhibition Apol 40',"DRC-2, 40', concentration 80",62%
same,% inhibition ApPOL 90',concentration 2.5,9%
same,% inhibition ApPOL 90',concentration 5,6%
same,% inhibition ApPOL 90',concentration 10,15%
same,% inhibition ApPOL 90',concentration 20,39%
same,% inhibition ApPOL 90',concentration 40,47%
same,% inhibition ApPOL 90',concentration 80,64%
same,% inhibition apPOL 180',"DRC-2, 180', concentration 2.5",4%
same,% inhibition apPOL 180',"DRC-2, 180', concentration 5",0.715%
same,% inhibition apPOL 180',"DRC-2, 180', concentration 10",5.41%
same,% inhibition apPOL 180',"DRC-2, 180', concentration 20",31%
same,% inhibition apPOL 180',"DRC-2, 180', concentration 40",37%
same,% inhibition apPOL 180',"DRC-2, 180', concentration 80",65%
same,% inhibition Apo pol 5',"conc 2.5 (unit not given), 5', DRC-2",11%
same,% inhibition Apol 40',"conc 2.5 (unit not given), 40', DRC-2",11%
same,% inhibition Apol 40',"conc 5 (unit not given), 40', DRC-2",11%
same,DNA Pol,"primary screen hit value, DNA Pol (186 hits)",74

# Source: article PMC9090415, “Discovery of small molecule inhibitors of Plasmodium falciparum apicoplast DNA polymerase” (Journal of Enzyme Inhibition and Medicinal Chemistry, 2022)
